Experimental data as given in US20050002991A1, “Prophylactic agent of hypertension containing a conjugated fatty acid as an effective ingredient and the use thereof” (RINORU OIL MILLS CO., LTD., priority 2003, published 2005).
Marks after values point to notes of the source that are not given here.

System: OLETF rats
Assay: Systolic blood pressure of OLETF rats fed CLA-supplemented diet (indirect tail cuff method)
Type: in vivo, rat
Conditions: male OLETF rats; for Blood pressure, initial value / Blood pressure, 1 Week / Blood pressure, 2 Weeks / Blood pressure, 3 Weeks: systolic; for Blood pressure, initial value: baseline before feeding the diet supplemented with 0.5% of the substance; for Blood pressure, 1 Week / Blood pressure, 2 Weeks / Blood pressure, 3 Weeks: diet supplemented with 0.5% of the substance; for Blood pressure, 1 Week: 1 week of feeding; for Blood pressure, 2 Weeks: 2 weeks of feeding; for Blood pressure, 3 Weeks: 3 weeks of feeding; for Systolic blood pressure compared with control group (in words): 0.5% in diet, up to 3 weeks, control = high linoleic safflower oil
Source text: Male OLETF rats (7 weeks old), an animal model of non-insulin dependent diabetes mellitus, were assigned to three groups that were fed ad libitum with a semisynthetic diet (AIN-76) supplemented with 0.5% high linoleic safflower oil (Rinoru Oil Mills Co., Ltd.; control group), or a semisynthetic diet supplemented with 0.5% 9cis,11trans-CLA, and a semisynthetic diet supplemented with 0.5% 10trans,12cis-CLA for three weeks. […]
It has been found from the above-described results that systolic blood pressure is lowered in rats fed with the 10trans, 12cis-CLA.

Row | Molecule | Blood pressure, initial value | Blood pressure, 1 Week | Blood pressure, 2 Weeks | Blood pressure, 3 Weeks | Systolic blood pressure compared with control group (in words) | Systolic blood pressure compared with control group (in words) (listed as 10trans,12cis-CLA)
1 | CCCCCC/C=C/C=C\CCCCCCCC(=O)O [9cis, 11trans-CLA, 9cis,11trans-CLA] | 103 ± 3 mmHg | 131 ± 3 mmHg | 148 ± 4^a mmHg | 154 ± 4^a mmHg |  | 
2 | conjugated linoleic acid [CLA] |  |  |  |  | tends to lower | 
3 | CCCCC/C=C\C=C\CCCCCCCCC(=O)O [10trans, 12cis-CLA, 10trans,12cis-CLA] | 106 ± 4 mmHg | 125 ± 6 mmHg | 128 ± 5^b mmHg | 132 ± 3^b mmHg | lowered | significantly suppressed
